23 compounds from ChEMBL document CHEMBL4265934 (Eur J Med Chem, 2018) can be followed below.

pIC50: −log10 of the molar value. The source made the active and inactive calls. The calls are words filed in the database; no cut-off is given here.

In general, pIC50 refers to the IC50 on a negative log10 scale, so that one unit is a factor of ten.

In data set [1] the test system is Mus musculus. Put plainly: Anti-asthmatic activity in mouse model of ovalbumin-induced asthma assessed as decrease in methacholine-induced lung resistance at 90 mg/kg aerosolized daily by plethysmographic method. It is filed as functional, organism-based.
Data set [2] concerns Mus musculus. Briefly: Anti-inflammatory activity in mouse model of ovalbumin-induced asthma assessed as decrease in total leukocytic infilterate in lungs administered ip daily. It is filed as functional, organism-based.
In data set [3] the test system is Mus musculus. Briefly: Anti-inflammatory activity in mouse model of ovalbumin-induced asthma assessed as decrease in neutrophilic infilteration at 90 mg/kg aerosolized daily. The class given is functional, organism-based.
For data set [4], the system named is Mus musculus. Briefly: Toxicity in mouse up to 90 mg/kg, ip or iv administered 3 to 5 times/week up to 4 weeks. The class given is organism-based. The settings on record: in vivo, 672 h.
Data set [5] addresses T1, Phosphatidylinositol 4,5-bisphosphate 3-kinase catalytic subunit delta isoform (Homo sapiens) (UniProt O00329).
T1 sequence (whole entry): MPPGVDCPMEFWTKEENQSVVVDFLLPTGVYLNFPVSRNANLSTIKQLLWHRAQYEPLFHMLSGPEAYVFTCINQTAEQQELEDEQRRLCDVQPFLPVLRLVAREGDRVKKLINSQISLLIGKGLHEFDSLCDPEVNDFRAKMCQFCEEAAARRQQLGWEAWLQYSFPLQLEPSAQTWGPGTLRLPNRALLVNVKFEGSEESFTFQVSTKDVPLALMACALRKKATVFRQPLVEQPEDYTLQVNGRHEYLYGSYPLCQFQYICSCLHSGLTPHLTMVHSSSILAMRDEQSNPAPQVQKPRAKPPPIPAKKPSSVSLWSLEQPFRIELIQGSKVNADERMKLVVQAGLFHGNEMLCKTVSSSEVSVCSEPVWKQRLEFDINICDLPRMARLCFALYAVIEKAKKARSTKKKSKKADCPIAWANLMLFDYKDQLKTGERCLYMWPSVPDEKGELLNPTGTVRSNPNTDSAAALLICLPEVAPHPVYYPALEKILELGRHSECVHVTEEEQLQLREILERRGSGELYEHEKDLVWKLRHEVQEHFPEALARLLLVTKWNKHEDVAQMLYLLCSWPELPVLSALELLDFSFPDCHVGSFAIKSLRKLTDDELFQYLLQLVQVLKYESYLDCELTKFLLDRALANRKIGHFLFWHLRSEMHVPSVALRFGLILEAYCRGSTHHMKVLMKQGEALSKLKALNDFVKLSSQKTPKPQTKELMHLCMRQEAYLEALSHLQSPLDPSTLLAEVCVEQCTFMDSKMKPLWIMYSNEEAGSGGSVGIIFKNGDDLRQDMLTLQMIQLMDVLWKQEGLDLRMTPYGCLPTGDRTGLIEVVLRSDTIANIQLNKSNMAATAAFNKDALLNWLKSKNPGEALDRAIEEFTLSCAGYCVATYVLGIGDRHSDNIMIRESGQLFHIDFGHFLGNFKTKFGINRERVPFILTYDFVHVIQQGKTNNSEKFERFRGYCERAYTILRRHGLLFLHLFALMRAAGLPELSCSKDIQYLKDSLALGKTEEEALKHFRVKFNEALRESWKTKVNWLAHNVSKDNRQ
Put plainly: Inhibition of PI3Kdelta in human basophils assessed as reduction in IgE-induced degranulation by decrease in measuring CD203c expression level by fluorescence assay.

For data set [6], the target named is PI3-kinase p110-alpha/p85-alpha (Homo sapiens, UniProt P42336). Briefly: Inhibition of PI3KCalpha/PIK3R1 (unknown origin). It is filed as protein-complex assay.
Data set [7] addresses PI3K p110 beta/p85 alpha (Homo sapiens, UniProt P42338). Put plainly: Inhibition of PI3KCbeta/PIK3R1 (unknown origin). The class given is protein-complex assay.
The test system of data set [8] is Mus musculus. Put plainly: Anti-inflammatory activity in mouse model of ovalbumin-induced asthma assessed as decrease in macrophage infilteration at 90 mg/kg aerosolized daily. It is filed as functional, organism-based.
Data set [9] addresses T1, Phosphatidylinositol 4,5-bisphosphate 3-kinase catalytic subunit delta isoform (Homo sapiens). Briefly: Inhibition of PI3Kdelta in human basophils assessed as reduction in IgE-induced degranulation by measuring decrease in CD63 expression level by flow cast assay.
Data set [10] concerns the target PI3-kinase p110-delta/p85-alpha (Homo sapiens, UniProt O00329). Briefly: Inhibition of PI3KCdelta/PIK3R1 (unknown origin). It is filed as protein-complex assay.
The subject of data set [11] is Mus musculus. Briefly: Anti-inflammatory activity in mouse model of ovalbumin-induced asthma assessed as decrease in eosinophilic infilteration administered ip daily. The class given is functional, organism-based.
Data set [12] deals with Mus musculus. Briefly: Anti-inflammatory activity in mouse model of ovalbumin-induced asthma assessed as decrease in eosinophilic infilteration at 90 mg/kg aerosolized daily. It is filed as functional, organism-based.
The subject of data set [13] is Mus musculus. Briefly: Anti-asthmatic activity in mouse model of ovalbumin-induced asthma assessed as decrease in methacholine-induced lung resistance at 90 mg/kg, ip daily by plethysmographic method. The class given is functional, organism-based.
For data set [14], the system named is Mus musculus. Briefly: Anti-inflammatory activity in mouse model of ovalbumin-induced asthma assessed as decrease in total leukocytic infilterate in BAL at 90 mg/kg aerosolized daily. The class given is functional, organism-based.
For data set [15], the target named is Phosphatidylinositol 4,5-bisphosphate 3-kinase catalytic subunit gamma isoform (Homo sapiens, UniProt P48736). Briefly: Inhibition of PI3KCgamma (unknown origin).
In data set [16] the test system is Mus musculus. Put plainly: Anti-inflammatory activity in mouse model of ovalbumin-induced asthma assessed as decrease in total leukocytic infilterate in BAL administered ip daily. The class given is functional, organism-based.
Data set [17] relates to Mus musculus. Put plainly: Protection against DNFB-induced atopic dermatitis in mouse assessed as reduction in ear thickness at 90 mg/kg, ip measured up to 3 days post DNFB treatment. The class given is functional, organism-based.
The target of data set [18] is T1, Phosphatidylinositol 4,5-bisphosphate 3-kinase catalytic subunit delta isoform (Homo sapiens). Briefly: Inhibition of PI3Kdelta in human basophils assessed as reduction in IgE-induced degranulation by measuring CD63 expression level at 100 uM by flow cast assay relative to control. Set-up: scale not given: the % may be the effect or the level left.
For data set [19] the target is unchanged. Put plainly: Inhibition of PI3Kdelta in human basophils assessed as reduction in IgE-induced degranulation by measuring CD203c expression level at 100 uM by fluorescence assay relative to control. More on the design: scale not given: the % may be the effect or the level left.
For data set [20], the system named is Mus musculus. Put plainly: Anti-asthmatic activity in mouse model of ovalbumin-induced asthma assessed as decrease in methacholine-induced lung resistance at 10 mg/kg aerosolized daily by plethysmographic method. It is filed as functional, organism-based.
In data set [21] the test system is Mus musculus. Briefly: Anti-inflammatory activity in mouse model of ovalbumin-induced asthma assessed as decrease in total leukocytic infilterate in BAL at 10 mg/kg aerosolized daily. The class given is functional, organism-based.
The test system of data set [22] is Mus musculus. Briefly: Protection against DNFB-induced atopic dermatitis in mouse assessed as reduction in ear thickness administered topically measured up to 4 days post DNFB treatment. It is filed as functional, organism-based.
Data set [23] relates to Mus musculus. Put plainly: Anti-asthmatic activity in mouse model of ovalbumin-induced asthma assessed as decrease in methacholine-induced lung resistance at 10 mg/kg, ip daily by plethysmographic method. The class given is functional, organism-based.

Sequence of PI3-kinase p110-alpha/p85-alpha (P27986 whole entry): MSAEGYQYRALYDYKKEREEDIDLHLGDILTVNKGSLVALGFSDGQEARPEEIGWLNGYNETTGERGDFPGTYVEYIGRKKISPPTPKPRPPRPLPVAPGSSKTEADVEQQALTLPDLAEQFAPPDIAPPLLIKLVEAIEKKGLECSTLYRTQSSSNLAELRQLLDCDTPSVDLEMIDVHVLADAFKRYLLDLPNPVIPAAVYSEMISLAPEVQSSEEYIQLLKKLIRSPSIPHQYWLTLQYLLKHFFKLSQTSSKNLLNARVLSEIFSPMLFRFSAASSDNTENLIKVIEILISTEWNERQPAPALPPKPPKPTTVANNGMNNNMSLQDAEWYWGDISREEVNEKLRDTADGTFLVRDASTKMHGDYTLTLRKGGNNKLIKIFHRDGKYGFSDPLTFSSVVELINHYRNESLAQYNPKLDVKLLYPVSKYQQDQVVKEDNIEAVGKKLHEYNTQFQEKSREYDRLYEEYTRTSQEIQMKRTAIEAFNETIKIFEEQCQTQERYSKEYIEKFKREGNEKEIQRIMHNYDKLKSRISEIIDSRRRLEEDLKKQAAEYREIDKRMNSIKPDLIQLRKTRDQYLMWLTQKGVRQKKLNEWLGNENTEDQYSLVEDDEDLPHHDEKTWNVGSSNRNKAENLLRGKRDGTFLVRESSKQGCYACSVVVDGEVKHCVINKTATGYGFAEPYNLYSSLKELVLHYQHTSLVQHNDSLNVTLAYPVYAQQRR
Sequence of PI3-kinase p110-alpha/p85-alpha (P42336 whole entry): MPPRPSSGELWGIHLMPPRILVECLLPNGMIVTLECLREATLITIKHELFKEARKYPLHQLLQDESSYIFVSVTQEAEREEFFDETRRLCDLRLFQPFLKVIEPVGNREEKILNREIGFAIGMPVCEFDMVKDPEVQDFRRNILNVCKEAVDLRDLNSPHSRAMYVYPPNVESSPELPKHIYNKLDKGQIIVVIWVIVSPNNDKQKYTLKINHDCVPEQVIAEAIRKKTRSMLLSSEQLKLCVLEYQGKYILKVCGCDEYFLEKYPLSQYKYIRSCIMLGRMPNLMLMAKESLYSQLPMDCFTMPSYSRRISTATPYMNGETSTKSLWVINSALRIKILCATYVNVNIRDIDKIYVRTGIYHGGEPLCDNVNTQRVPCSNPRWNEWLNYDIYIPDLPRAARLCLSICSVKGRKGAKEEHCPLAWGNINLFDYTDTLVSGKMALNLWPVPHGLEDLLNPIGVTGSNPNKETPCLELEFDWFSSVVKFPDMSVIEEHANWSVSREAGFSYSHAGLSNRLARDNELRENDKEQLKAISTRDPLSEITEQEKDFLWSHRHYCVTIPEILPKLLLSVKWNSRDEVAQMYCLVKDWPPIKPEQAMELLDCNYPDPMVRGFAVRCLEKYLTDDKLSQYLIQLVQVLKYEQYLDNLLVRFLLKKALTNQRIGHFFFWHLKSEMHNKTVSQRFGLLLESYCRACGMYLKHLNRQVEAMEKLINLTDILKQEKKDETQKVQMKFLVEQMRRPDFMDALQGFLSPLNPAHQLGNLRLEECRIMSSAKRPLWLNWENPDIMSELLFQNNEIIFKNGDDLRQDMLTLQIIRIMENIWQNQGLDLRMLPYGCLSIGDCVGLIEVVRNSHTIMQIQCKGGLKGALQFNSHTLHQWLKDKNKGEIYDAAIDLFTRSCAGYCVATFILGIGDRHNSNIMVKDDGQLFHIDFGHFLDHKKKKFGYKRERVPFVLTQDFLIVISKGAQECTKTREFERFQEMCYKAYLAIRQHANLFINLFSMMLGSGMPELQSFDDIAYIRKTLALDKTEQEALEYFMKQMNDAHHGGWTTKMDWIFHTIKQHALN
Sequence of PI3K p110 beta/p85 alpha (P27986 whole entry): as the sequence (P27986 whole entry) above
Sequence of PI3K p110 beta/p85 alpha (P42338 whole entry): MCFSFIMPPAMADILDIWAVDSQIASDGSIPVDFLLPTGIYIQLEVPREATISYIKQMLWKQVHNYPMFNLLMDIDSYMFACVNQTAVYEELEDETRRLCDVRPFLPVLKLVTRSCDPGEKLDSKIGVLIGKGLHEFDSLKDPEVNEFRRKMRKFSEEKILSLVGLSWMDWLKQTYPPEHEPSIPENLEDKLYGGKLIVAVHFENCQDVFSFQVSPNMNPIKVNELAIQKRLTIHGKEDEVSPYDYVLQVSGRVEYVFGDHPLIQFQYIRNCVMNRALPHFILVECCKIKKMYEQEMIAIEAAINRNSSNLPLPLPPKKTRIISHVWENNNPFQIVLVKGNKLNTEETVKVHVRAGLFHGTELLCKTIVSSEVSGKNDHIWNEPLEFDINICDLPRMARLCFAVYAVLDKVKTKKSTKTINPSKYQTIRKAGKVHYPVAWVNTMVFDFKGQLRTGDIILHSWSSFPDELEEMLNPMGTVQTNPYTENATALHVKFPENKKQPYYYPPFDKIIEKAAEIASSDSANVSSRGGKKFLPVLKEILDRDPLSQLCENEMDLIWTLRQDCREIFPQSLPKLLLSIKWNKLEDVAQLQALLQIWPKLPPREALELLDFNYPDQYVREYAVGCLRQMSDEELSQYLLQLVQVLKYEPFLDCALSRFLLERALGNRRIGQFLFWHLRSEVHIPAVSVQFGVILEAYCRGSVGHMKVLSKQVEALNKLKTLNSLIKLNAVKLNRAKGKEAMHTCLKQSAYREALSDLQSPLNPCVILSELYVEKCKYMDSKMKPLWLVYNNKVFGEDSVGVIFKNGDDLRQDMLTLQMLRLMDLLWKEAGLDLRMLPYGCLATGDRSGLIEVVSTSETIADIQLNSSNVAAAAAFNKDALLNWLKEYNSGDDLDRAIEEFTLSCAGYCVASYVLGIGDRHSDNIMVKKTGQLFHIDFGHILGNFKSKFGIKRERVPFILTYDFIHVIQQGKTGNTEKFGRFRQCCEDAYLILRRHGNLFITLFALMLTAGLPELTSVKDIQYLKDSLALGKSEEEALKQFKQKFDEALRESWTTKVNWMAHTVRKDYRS
Sequence of PI3-kinase p110-delta/p85-alpha (P27986 whole entry, one chain of several): as the sequence (P27986 whole entry) above
Sequence of Phosphatidylinositol 4,5-bisphosphate 3-kinase catalytic subunit gamma isoform (P48736 whole entry, canonical isoform): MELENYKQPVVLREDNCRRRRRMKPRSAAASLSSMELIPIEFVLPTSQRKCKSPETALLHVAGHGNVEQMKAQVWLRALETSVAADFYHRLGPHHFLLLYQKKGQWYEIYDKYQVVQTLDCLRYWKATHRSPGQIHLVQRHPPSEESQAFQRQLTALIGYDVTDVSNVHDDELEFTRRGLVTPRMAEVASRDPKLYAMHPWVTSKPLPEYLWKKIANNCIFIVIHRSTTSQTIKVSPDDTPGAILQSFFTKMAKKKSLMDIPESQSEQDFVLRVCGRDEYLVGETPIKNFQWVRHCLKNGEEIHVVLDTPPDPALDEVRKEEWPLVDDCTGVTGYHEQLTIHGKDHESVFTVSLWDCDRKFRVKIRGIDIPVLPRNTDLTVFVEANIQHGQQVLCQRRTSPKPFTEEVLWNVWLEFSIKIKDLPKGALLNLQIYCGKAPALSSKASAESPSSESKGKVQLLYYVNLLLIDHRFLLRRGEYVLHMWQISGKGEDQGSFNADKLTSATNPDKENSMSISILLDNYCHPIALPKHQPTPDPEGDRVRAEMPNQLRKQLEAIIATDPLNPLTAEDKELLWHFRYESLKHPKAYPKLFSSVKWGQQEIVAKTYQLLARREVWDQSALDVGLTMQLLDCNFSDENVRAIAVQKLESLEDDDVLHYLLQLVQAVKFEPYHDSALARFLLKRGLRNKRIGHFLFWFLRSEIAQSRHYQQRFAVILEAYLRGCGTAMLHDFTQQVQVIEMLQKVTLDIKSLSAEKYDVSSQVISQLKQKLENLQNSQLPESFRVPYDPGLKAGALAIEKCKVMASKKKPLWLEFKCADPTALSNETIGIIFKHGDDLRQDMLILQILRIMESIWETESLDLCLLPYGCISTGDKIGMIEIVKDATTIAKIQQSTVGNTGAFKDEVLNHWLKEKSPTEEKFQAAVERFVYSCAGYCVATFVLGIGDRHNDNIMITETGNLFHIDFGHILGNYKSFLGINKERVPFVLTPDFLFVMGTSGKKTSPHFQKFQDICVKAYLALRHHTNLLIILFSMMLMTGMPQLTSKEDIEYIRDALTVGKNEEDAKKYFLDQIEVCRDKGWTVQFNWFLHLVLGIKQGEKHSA

For `COc1cc(OC)c(/C=C/C(=O)c2c(OC)cc(OC)c(C3CCN(C)CC3)c2O)c(OC)c1`, the outcome in data set [1], in data set [13] and in data set [17] was Active. Moreover, the Activity entry in [2] is “Dose-dependent effect”; in data set [4], “Non-Toxic”; in data set [11], “Dose-dependent effect”; in data set [16], “Dose-dependent effect”. The outcome in data set [3], in data set [8], in data set [12] and in [14] was inactive. Moreover, the inhibition result in data set [5] and in data set [9] was “Dose-dependent effect” each time. The pIC50 is below 5.00 in [6], below 5.00 in data set [7], 5.14 in data set [10] and 5.00 in data set [15].

`COc1cc(OC)c(OC)cc1/C=C/C(=O)c1cc(OC)c(OC)cc1OC`: the Activity in data set [18] turned out to be 66%; in data set [19] it was 70%.

For `COc1cc(OC)c(/C=C/C(=O)c2ccc(OC)c(OC)c2)c(OC)c1`, the Activity in data set [18] was 91%; in data set [19] it was 95%.

As to `COc1cccc(OC)c1/C=C/C(=O)c1c(OC)cc(OC)c(C2CCN(C)CC2)c1O`, the Activity was 4% in data set [18] and 41% in data set [19].

For the compound `COc1cccc(/C=C/C(=O)c2c(OC)cccc2OC)c1`, the Activity in data set [18] stood at 100%; in [19], 82%.

Turning to `C[C@@H]1C[C@H]2[C@@H]3CCC4=CC(=O)C=C[C@]4(C)[C@@]3(F)[C@@H](O)C[C@]2(C)[C@@]1(O)C(=O)CO`, the outcome in [20] and in [21] was Active.

On to `COc1ccc(C(=O)/C=C/c2c(OC)cc(OC)cc2OC)c(O)c1`, for which the Activity in [18] worked out at 95%; in [19] it was 91%.

As to `COc1cc(OC)c(C(=O)/C=C/c2ccc(OC)c(O)c2)c(OC)c1`, the Activity in data set [18] was 40%; in [19], 54%.

With `COc1cccc(OC)c1C(=O)/C=C/c1ccc(C(F)(F)F)cc1`, the Activity is 64% in [18] and 81% in data set [19].

Turning to `CCC(=O)OCC(=O)[C@@]1(OC(=O)CC)[C@@H](C)C[C@H]2[C@@H]3CCC4=CC(=O)C=C[C@]4(C)[C@@]3(F)[C@@H](O)C[C@@]21C`, the outcome in data set [22] was Active.

On to `COc1cc(OC)c(C(=O)/C=C/c2ccccc2OC)c(OC)c1`, for which the Activity was determined as 48% in data set [18] and 65% in data set [19].

For `COc1cccc(OC)c1/C=C/C(=O)c1c(OC)cccc1OC`, the Activity worked out at 94% in [18] and 96% in data set [19].

Turning to `COc1cc(OC)c(/C=C/C(=O)c2c(OC)cccc2OC)c(OC)c1`, the Activity was determined as 78% in data set [18] and 81% in data set [19].

With `COc1cc(O)c(C(=O)/C=C/c2c(OC)cccc2OC)c(OC)c1`, the Activity in data set [18] worked out at 81%; in data set [19], 85%.

Take `COc1ccc(/C=C/C(=O)c2cc(OC)c(OC)cc2OC)cc1O`: the values for the Activity in data set [18] and in data set [19] were 49% and 62%, respectively.

Turning to `COc1cc(OC)c(C2CCN(C)CC2)c(O)c1C(=O)/C=C/c1c(Cl)cccc1Cl`, the Activity in data set [18] is 6%; in data set [19], 24%.

`COc1cc(OC)c(/C=C/C(=O)c2c(OC)cc(N)cc2OC)c(OC)c1`: the Activity in data set [18] was 63%; in [19], 75%.

Take `COc1cc(OC)c(C(=O)/C=C/c2cc(OC)c(OC)cc2OC)c(OC)c1`: the Activity in data set [18] stood at 53%; in data set [19] it was 51%.

Consider `COc1ccccc1/C=C/C(=O)c1cc(OC)c(OC)cc1OC`, for which the Activity in data set [18] came to 55%; in [19], 65%.

In the case of `COc1cc(OC)c(/C=C/C(=O)c2c(OC)cc(OC)cc2OC)c(OC)c1`, the figures for the Activity in [18] and in data set [19] were 67% and 68%, respectively.

`COc1ccc(C(=O)/C=C/c2cc(OC)c(OC)c(OC)c2)c(O)c1`: the values for the Activity in data set [18] and in data set [19] were 92% and 93%, respectively.

For the compound `COc1ccc(C(=O)/C=C/c2c(OC)cc(OC)cc2OC)c(OC)c1`, the Activity in data set [18] was 76%; in data set [19], 86%.

On to `O=C(O)c1cc(=O)c2c(OCC(O)COc3cccc4oc(C(=O)O)cc(=O)c34)cccc2o1`, for which the outcome in [23] was inactive.
